Source: the NIST ThermoML archive (doi:10.1016/j.jct.2013.10.031)

Assay: wn = mass fraction of the nth substance listed
Details: Gas, Burnett expansion method

FCC(F)(F)F [1,1,1,2-tetrafluoroethane] + CCC
Details	mass density [kg/m3]
291.04 K, 382.5 kPa, w2 = 0.6	9.6512
291.04 K, 497.9 kPa, w2 = 0.6	12.8332
291.04 K, 818.1 kPa, w2 = 0.6	22.6914
291.06 K, 178.7 kPa, w2 = 0.65	4.1993
291.06 K, 235.4 kPa, w2 = 0.65	5.5839
291.06 K, 309.1 kPa, w2 = 0.65	7.425
291.06 K, 404.2 kPa, w2 = 0.65	9.8733
291.06 K, 525 kPa, w2 = 0.65	13.1287
291.06 K, 642.6 kPa, w2 = 0.6	17.0639
291.08 K, 675.9 kPa, w2 = 0.65	17.4564
291.99 K, 927 kPa, w2 = 0.5	28.4165
292 K, 732.8 kPa, w2 = 0.5	21.3324
292.01 K, 193.1 kPa, w2 = 0.5	5.0866
292.01 K, 254.3 kPa, w2 = 0.5	6.7756
292.01 K, 334.3 kPa, w2 = 0.5	9.02529
292.01 K, 437.9 kPa, w2 = 0.5	12.0223
292.01 K, 569.6 kPa, w2 = 0.5	16.0141
292.03 K, 202.8 kPa, w2 = 0.4	5.83306
292.03 K, 587.9 kPa, w2 = 0.4	18.3639
292.03 K, 753.1 kPa, w2 = 0.4	24.4617
292.03 K, 950.3 kPa, w2 = 0.4	32.5844
292.04 K, 266.5 kPa, w2 = 0.4	7.76977
292.04 K, 348.8 kPa, w2 = 0.4	10.3497
292.04 K, 454.4 kPa, w2 = 0.4	13.7862
292.1 K, 669.6 kPa, w2 = 0.45	20.2125
292.1 K, 852.9 kPa, w2 = 0.45	26.9241
292.11 K, 399.4 kPa, w2 = 0.45	11.3911
292.11 K, 519.4 kPa, w2 = 0.45	15.1737
292.12 K, 176.3 kPa, w2 = 0.45	4.81956
292.12 K, 232.3 kPa, w2 = 0.45	6.41979
292.12 K, 305.2 kPa, w2 = 0.45	8.55159
295.06 K, 496 kPa, w2 = 0.6	12.529
295.06 K, 537 kPa, w2 = 0.55	14.2738
295.06 K, 692.2 kPa, w2 = 0.55	18.98
295.06 K, 881.4 kPa, w2 = 0.55	25.2378
295.07 K, 315.8 kPa, w2 = 0.55	8.0723
295.07 K, 641.4 kPa, w2 = 0.6	16.6596
295.07 K, 820 kPa, w2 = 0.6	22.1527
295.08 K, 167 kPa, w2 = 0.6	4.0072
295.08 K, 220.6 kPa, w2 = 0.6	5.3286
295.08 K, 240.3 kPa, w2 = 0.55	6.0706
295.08 K, 380.5 kPa, w2 = 0.6	9.4217
295.08 K, 413.2 kPa, w2 = 0.55	10.7336
295.08 K, 929.7 kPa, w2 = 0.65	25.1362
295.09 K, 290.3 kPa, w2 = 0.6	7.0853
295.09 K, 571.2 kPa, w2 = 0.65	14.2158
295.09 K, 733.9 kPa, w2 = 0.65	18.9032
295.1 K, 440.4 kPa, w2 = 0.65	10.6904
295.11 K, 337.1 kPa, w2 = 0.65	8.0394
295.12 K, 195 kPa, w2 = 0.65	4.5466
295.12 K, 256.9 kPa, w2 = 0.65	6.0457
296.03 K, 914.3 kPa, w2 = 0.45	28.6491
296.04 K, 429.5 kPa, w2 = 0.45	12.1212
296.04 K, 558.2 kPa, w2 = 0.45	16.146
296.04 K, 718.9 kPa, w2 = 0.45	21.5073
296.05 K, 189.8 kPa, w2 = 0.45	5.12847
296.05 K, 250.1 kPa, w2 = 0.45	6.83136
296.05 K, 328.4 kPa, w2 = 0.45	9.09958
296.06 K, 874.4 kPa, w2 = 0.5	25.9625
296.07 K, 179.9 kPa, w2 = 0.5	4.64758
296.07 K, 236.8 kPa, w2 = 0.5	6.1908
296.07 K, 407 kPa, w2 = 0.5	10.9846
296.07 K, 529.9 kPa, w2 = 0.5	14.6321
296.07 K, 684.5 kPa, w2 = 0.5	19.4905
296.15 K, 854.3 kPa, w2 = 0.4	27.6875
296.15 K, 1071.2 kPa, w2 = 0.4	36.8808
296.16 K, 518.5 kPa, w2 = 0.4	15.6041
296.16 K, 669.4 kPa, w2 = 0.4	20.7854
296.17 K, 231.5 kPa, w2 = 0.4	6.60203
296.17 K, 304.4 kPa, w2 = 0.4	8.79413
296.17 K, 398.4 kPa, w2 = 0.4	11.7141
297.08 K, 311 kPa, w2 = 0.5	8.24631
299.03 K, 1039.9 kPa, w2 = 0.55	30.269
299.04 K, 190.4 kPa, w2 = 0.6	4.5212
299.04 K, 220.4 kPa, w2 = 0.55	5.4755
299.04 K, 251 kPa, w2 = 0.6	6.0118
299.04 K, 290.2 kPa, w2 = 0.55	7.2808
299.04 K, 330.1 kPa, w2 = 0.6	7.994
299.04 K, 380.6 kPa, w2 = 0.55	9.6815
299.04 K, 432.1 kPa, w2 = 0.6	10.6297
299.04 K, 496.4 kPa, w2 = 0.55	12.8736
299.04 K, 561.9 kPa, w2 = 0.6	14.1346
299.04 K, 724.4 kPa, w2 = 0.6	18.7949
299.04 K, 824.2 kPa, w2 = 0.55	22.7626
299.05 K, 180.8 kPa, w2 = 0.65	4.1345
299.05 K, 238.4 kPa, w2 = 0.65	5.4977
299.05 K, 313.5 kPa, w2 = 0.65	7.3105
299.05 K, 410.5 kPa, w2 = 0.65	9.7208
299.05 K, 534.3 kPa, w2 = 0.65	12.9262
299.05 K, 642.9 kPa, w2 = 0.55	17.1183
299.06 K, 689.6 kPa, w2 = 0.65	17.1876
299.06 K, 880.4 kPa, w2 = 0.65	22.8543
299.06 K, 922.6 kPa, w2 = 0.6	24.9906
299.92 K, 198.1 kPa, w2 = 0.5	5.06523
299.92 K, 261.1 kPa, w2 = 0.5	6.74709
299.92 K, 343.5 kPa, w2 = 0.5	8.9873
299.92 K, 449.9 kPa, w2 = 0.5	11.9714
299.92 K, 585.2 kPa, w2 = 0.5	15.9465
299.92 K, 754.7 kPa, w2 = 0.5	21.2412
299.93 K, 961.3 kPa, w2 = 0.5	28.294
300.04 K, 162.1 kPa, w2 = 0.4	4.47962
300.04 K, 213.8 kPa, w2 = 0.4	5.96699
300.04 K, 369.1 kPa, w2 = 0.4	10.5874
300.04 K, 481.6 kPa, w2 = 0.4	14.1031
300.04 K, 624.3 kPa, w2 = 0.4	18.786
300.04 K, 801.2 kPa, w2 = 0.4	25.0237
300.04 K, 1014.7 kPa, w2 = 0.4	33.3323
300.05 K, 281.4 kPa, w2 = 0.4	7.94819
300.28 K, 1155.2 kPa, w2 = 0.45	37.6831
300.3 K, 250.1 kPa, w2 = 0.45	6.74559
300.3 K, 328.7 kPa, w2 = 0.45	8.98533
300.3 K, 430.2 kPa, w2 = 0.45	11.9689
300.3 K, 560 kPa, w2 = 0.45	15.9432
300.3 K, 722.6 kPa, w2 = 0.45	21.2369
300.3 K, 921.7 kPa, w2 = 0.45	28.2885
303 K, 206 kPa, w2 = 0.65	4.6675
303 K, 271.6 kPa, w2 = 0.65	6.2064
303 K, 356.7 kPa, w2 = 0.65	8.2528
303 K, 466.3 kPa, w2 = 0.65	10.974
303 K, 605.7 kPa, w2 = 0.65	14.5921
303.01 K, 228 kPa, w2 = 0.55	5.5856
303.01 K, 513.7 kPa, w2 = 0.55	13.1325
303.01 K, 665.4 kPa, w2 = 0.55	17.4628
303.01 K, 780 kPa, w2 = 0.65	19.4028
303.01 K, 853.2 kPa, w2 = 0.55	23.2201
303.02 K, 300.2 kPa, w2 = 0.55	7.4272
303.02 K, 393.7 kPa, w2 = 0.55	9.876
303.02 K, 1078.8 kPa, w2 = 0.55	30.8763
303.03 K, 991 kPa, w2 = 0.65	25.7988
303.1 K, 231.6 kPa, w2 = 0.6	5.4683
303.1 K, 304.9 kPa, w2 = 0.6	7.2713
303.1 K, 399.8 kPa, w2 = 0.6	9.6687
303.1 K, 521.7 kPa, w2 = 0.6	12.8566
303.1 K, 675.5 kPa, w2 = 0.6	17.0956
303.1 K, 865.6 kPa, w2 = 0.6	22.7325
303.11 K, 1092.1 kPa, w2 = 0.6	30.2268
304.1 K, 860.4 kPa, w2 = 0.4	26.6525
304.1 K, 1087.7 kPa, w2 = 0.4	35.5024
304.11 K, 174.8 kPa, w2 = 0.4	4.77108
304.11 K, 397.4 kPa, w2 = 0.4	11.2764
304.11 K, 518.4 kPa, w2 = 0.4	15.0206
304.11 K, 671.1 kPa, w2 = 0.4	20.0084
304.12 K, 230.5 kPa, w2 = 0.4	6.35521
304.12 K, 303.2 kPa, w2 = 0.4	8.46542
304.18 K, 860.4 kPa, w2 = 0.5	24.4745
304.19 K, 302.4 kPa, w2 = 0.5	7.77376
304.19 K, 396.5 kPa, w2 = 0.5	10.3551
304.19 K, 517.4 kPa, w2 = 0.5	13.7935
304.19 K, 670.5 kPa, w2 = 0.5	18.3734
304.19 K, 1088.7 kPa, w2 = 0.5	32.6005
304.23 K, 1142.8 kPa, w2 = 0.45	36.7316
304.24 K, 907.2 kPa, w2 = 0.45	27.5748
304.25 K, 248 kPa, w2 = 0.45	6.57513
